Consider nine compounds from ChEMBL document CHEMBL1201862, “PubChem BioAssay data set” (2004).

Active and inactive are the calls of the source.

Assay [1] deals with T1, Neuropeptide Y receptor type 2 (Homo sapiens, UniProt P49146).
T1 sequence (P49146 whole entry): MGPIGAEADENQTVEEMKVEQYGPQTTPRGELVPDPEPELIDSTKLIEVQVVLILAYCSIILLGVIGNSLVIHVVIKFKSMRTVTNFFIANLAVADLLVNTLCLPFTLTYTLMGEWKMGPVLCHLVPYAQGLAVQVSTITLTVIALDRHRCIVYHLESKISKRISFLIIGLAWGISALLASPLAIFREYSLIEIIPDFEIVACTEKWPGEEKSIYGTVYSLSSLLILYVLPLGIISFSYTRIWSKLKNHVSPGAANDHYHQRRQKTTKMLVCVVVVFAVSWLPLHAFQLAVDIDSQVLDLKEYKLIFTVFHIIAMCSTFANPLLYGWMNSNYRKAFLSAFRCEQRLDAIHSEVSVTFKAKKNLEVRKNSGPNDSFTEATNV
Put plainly: Fluorescence-based cell-based high-throughput dose response assay for agonists of NPY-Y2. [Related pubchem assays: 1703 (Screening assay (CNGC inhibitors).), 1359 (Screening assay (NPY-Y2 potentiators or agonists).), 1304 (Screening assay (NPY-Y1 potentiators or agonists).), 1710 (Screening assay (NPY-Y2 agonists).), 1791 (Summary AID.)]. Type of assay: functional.

The target of the next assay is T2, Protein RecA (Mycobacterium tuberculosis, UniProt P9WHJ3).
T2 sequence (P9WHJ3 whole entry): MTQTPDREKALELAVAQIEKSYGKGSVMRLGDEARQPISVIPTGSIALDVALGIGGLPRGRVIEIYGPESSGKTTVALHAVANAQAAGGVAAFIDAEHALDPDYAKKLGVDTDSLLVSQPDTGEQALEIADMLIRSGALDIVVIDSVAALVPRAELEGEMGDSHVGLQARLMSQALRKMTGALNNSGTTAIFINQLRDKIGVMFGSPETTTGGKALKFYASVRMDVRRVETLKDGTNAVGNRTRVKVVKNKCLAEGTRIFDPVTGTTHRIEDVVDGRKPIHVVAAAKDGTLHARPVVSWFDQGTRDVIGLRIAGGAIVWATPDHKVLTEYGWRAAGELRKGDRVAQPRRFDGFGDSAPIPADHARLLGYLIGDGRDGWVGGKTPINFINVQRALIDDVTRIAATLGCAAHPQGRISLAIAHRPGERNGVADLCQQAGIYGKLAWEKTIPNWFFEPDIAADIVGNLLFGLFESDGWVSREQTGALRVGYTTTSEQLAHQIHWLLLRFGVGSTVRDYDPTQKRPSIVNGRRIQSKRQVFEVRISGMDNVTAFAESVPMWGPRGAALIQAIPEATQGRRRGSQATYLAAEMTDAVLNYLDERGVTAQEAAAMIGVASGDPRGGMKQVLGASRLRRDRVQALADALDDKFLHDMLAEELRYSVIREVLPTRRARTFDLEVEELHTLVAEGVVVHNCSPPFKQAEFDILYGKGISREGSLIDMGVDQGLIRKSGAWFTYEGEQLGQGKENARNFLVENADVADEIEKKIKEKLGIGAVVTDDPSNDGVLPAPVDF
Kind of assay: Fluorescence Cell-Free Homogeneous Dose Retest to Identify Inhibitors of RecA-Intein Splicing Activity. [Related pubchem assays (depositor defined):AID2097, AID2223, AID489010, AID492950]. Type of assay: functional.

The next assay has as its target T3, Streptokinase A (Streptococcus pyogenes serotype M1, UniProt P10520).
T3 sequence (P10520 whole entry): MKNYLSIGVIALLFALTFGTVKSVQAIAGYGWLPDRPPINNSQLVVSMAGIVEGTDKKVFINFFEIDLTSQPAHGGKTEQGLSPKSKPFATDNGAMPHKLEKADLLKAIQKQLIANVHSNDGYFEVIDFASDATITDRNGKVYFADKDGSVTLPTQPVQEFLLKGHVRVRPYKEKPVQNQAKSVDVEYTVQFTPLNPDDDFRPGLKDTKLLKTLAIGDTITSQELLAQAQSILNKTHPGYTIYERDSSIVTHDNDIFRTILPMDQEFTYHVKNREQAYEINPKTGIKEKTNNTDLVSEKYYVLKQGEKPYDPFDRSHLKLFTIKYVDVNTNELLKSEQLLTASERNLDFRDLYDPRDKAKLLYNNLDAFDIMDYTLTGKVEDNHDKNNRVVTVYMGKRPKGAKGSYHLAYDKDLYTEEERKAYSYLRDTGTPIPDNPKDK
Put plainly: viability-normalized secreted streptokinase activity reduction – plasminogen activation absorbance, OD405, dose response (AID 1914).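 Note: secreted streptokinase activity via plasminogen activation per viability signal from cell pellet.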 The assay is classed as functional, Streptococcus pyogenes M1 GAS.

Assay [2] concerns the target T4, Neuropeptide Y receptor type 1 (Homo sapiens, UniProt P25929).
T4 sequence (P25929 whole entry): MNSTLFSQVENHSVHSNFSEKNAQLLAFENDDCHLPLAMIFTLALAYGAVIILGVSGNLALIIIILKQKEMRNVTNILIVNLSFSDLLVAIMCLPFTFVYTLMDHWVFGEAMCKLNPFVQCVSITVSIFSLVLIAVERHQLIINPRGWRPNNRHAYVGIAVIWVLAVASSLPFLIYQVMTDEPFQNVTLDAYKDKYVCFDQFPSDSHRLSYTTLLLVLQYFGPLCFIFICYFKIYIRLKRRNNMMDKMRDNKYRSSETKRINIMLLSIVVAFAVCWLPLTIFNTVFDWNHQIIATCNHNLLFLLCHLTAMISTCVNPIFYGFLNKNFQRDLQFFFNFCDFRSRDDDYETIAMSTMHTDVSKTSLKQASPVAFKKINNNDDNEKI
Put plainly: Fluorescence-based counterscreen for agonists of NPY-Y2: cell-based high-throughput dose response assay for agonists of NPY-Y1. Type of assay: functional.

The target of assay [3] is T5, Replicative DNA helicase DnaB (Mycobacterium tuberculosis, UniProt P9WMR3).
T5 sequence (P9WMR3 whole entry): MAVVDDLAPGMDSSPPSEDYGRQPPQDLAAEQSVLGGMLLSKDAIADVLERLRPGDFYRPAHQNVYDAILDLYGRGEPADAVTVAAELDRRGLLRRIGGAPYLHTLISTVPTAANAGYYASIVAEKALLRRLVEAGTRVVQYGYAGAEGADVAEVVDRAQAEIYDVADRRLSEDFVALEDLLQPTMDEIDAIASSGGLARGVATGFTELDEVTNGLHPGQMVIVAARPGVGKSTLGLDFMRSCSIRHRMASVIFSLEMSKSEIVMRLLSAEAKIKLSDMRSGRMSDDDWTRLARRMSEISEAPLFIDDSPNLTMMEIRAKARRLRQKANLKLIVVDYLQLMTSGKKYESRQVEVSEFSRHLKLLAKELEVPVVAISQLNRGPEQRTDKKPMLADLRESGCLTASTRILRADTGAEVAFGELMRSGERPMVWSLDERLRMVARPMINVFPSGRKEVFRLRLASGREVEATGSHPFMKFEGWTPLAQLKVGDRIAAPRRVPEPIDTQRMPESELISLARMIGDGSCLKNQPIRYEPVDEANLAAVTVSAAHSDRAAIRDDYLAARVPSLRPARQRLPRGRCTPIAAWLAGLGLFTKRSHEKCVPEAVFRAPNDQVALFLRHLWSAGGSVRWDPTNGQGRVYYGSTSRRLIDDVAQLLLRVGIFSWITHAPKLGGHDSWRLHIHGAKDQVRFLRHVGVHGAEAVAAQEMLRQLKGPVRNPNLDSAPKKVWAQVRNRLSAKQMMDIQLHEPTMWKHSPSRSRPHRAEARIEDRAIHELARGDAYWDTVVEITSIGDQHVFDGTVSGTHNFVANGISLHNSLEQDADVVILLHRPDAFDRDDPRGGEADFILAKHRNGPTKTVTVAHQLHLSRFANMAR
Put plainly: DnaB intein splicing inhibitors, dose response, biochemical, cell-free fluorescence (AID 449749). The assay is classed as functional.

For the next assay, the target named is Prothrombin (Homo sapiens, UniProt P00734). Put plainly: Thrombin 1536 HTS Dose Response Confirmation. [Related pubchem assays: 1046 (Thrombin 1536 HTS; hits were confirmed in this assay)]. The assay is classed as functional.
Assay [4] is described as follows: viability of uninfected HEp-2 cells – cell-based, HTS, cytotoxicity control for RSV inhibitor project, dose response (AID 2410). Type of assay: functional. As to conditions: human respiratory syncytial virus.
Assay [5] has as its system Streptococcus sp. 'group A'. Kind of assay: Streptococcus pyogenes SK(-)GAS viability under kanamycin – luminescence, BacTiterGlo, confirmation, counter-screen for streptokinase expression inhibitor project, dose response (AID 1900). Type of assay: functional, organism-based. (A counterscreen serves to expose hits that act by an unwanted route or on another target.)
A further assay concerns Streptococcus. Kind of assay: GAS UMAA2166 growth inhibition – luminescence, BacTiterGlo, counter-screen for streptokinase expression inhibitor project, dose response (AID 1915).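 Note: potency for reduction of bacterial viability or growth.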 The assay is classed as functional, organism-based.
For a further assay, the system named is HEK293. Kind of assay: Fluorescence-based counterscreen for potentiators or agonists of NPY-Y2: cell-based high-throughput dose response assay to identify inhibitors of cyclic nucleotide gated ion channel (CNGC) activity. In this assay, the parental HEK293 cell line transfected with a cyclic-nucleotide gated ion channel (CNGC)-based cAMP sensor is used to measure inhibition of isoproterenol-induced CNGC activity by test compound. Type of assay: functional. Conditions: Homo sapiens.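 Note: stimulus is 1 µM isoproterenol at EC100 plus PDE inhibitor Ro 20-1724 at 25 µM.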

The nature of assay [6]: Dd2 malaria parasite growth inhibition potency – SYBR Green, dry powder samples, dose response (AID 1159566).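 Note: potency for growth inhibition with lower SYBR green DNA signal.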 Type of assay: functional, cell-based.
Assay [7] in a line: growth inhibition of PfATP4-mutant resistant parasites – NITD609-resistant line, SYBR Green, dry powder, dose response (AID 1159571).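 Note: parasites synchronized at ring stage by sorbitol before testing.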 Type of assay: functional, cell-based.
Assay [8] can be described thus: P. falciparum Dd2 growth inhibitors, dose response, SYBR Green, cherry-picked samples (AID 1159567). The assay is classed as functional, cell-based.
A short description of assay [9]: growth inhibition of yeast DHODH-expressing 3D7 parasites – SYBR Green, dry powder samples, dose response (AID 1159570).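 Note: parasite growth measured after 72 hours of compound exposure.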 Type of assay: functional, cell-based.
Assay [10] concerns the target T6, Rac GTPase-activating protein 1 (Homo sapiens, UniProt Q9H0H5).
T6 sequence (Q9H0H5 whole entry): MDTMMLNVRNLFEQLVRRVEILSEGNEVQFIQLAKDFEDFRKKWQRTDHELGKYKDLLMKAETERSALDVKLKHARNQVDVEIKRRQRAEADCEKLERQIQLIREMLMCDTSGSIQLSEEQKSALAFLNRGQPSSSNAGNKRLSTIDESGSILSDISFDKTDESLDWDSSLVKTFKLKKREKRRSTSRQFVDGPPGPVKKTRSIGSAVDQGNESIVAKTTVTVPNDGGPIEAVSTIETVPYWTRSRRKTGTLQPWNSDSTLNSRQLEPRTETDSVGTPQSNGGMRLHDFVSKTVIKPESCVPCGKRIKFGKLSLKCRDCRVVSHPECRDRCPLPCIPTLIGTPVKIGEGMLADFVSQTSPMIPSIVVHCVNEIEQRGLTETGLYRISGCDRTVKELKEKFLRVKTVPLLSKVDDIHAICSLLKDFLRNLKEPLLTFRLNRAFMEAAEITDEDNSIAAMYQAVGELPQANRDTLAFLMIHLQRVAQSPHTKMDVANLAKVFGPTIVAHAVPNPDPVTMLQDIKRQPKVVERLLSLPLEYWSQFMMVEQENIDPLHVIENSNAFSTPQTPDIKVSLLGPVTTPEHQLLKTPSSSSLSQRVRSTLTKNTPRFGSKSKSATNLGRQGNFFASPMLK
Kind of assay: blockers of MgcRacGAP-driven Rac1 GTP hydrolysis – biochemical, ADP Hunter fluorescence, primary and confirmatory, confirmation (AID 624330). The assay is classed as functional.

For assay [11], the target named is NAD-dependent protein deacylase sirtuin-5, mitochondrial (Homo sapiens, UniProt Q9NXA8). Put plainly: sirtuin-5 deacylation blockers, concentration series – biochemical, fluorescence imaging, cherry-pick, set 5, dose response (AID 720591).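 Note: desuccinylation of succinyl peptide AMC substrate read as fluorescence after trypsin release; potency of inhibitors that lower fluorescence and may act on trypsin instead.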
NAD-dependent protein deacylase sirtuin-5, mitochondrial, sequence (Q9NXA8 whole entry): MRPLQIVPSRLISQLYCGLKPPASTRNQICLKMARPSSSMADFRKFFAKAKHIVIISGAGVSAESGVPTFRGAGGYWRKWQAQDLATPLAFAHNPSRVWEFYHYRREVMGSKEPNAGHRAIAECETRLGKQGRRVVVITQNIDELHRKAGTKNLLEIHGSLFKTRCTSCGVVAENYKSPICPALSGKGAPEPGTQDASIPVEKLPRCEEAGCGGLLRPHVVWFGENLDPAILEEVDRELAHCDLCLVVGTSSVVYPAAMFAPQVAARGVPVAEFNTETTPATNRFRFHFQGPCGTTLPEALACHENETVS
Assay [12] in a line: viability loss in HeLa cells – cytotoxicity control for MgcRacGAP inhibitor project, dose response (AID 624300). The assay is classed as functional.

For `CC(=O)C(=NNc1cccc(Cl)c1)Nc1ccc(Cl)cc1Cl`, the EC50 (commonly the concentration at which the effect is half-maximal) in assay [1] is 21.2 µM (not active); at Protein RecA, 49 µM (active); at Streptokinase A it was 2.72 µM (active); in assay [2] it was 12.6 µM (not active). Further, the AC50 (usually the concentration at which the activity in the assay is half-maximal) in assay [3] is 379 µM (active).

On to `Cc1ccc(C(=O)n2nc(-c3ccco3)nc2N)cc1`, for which the IC50 (in general, the concentration needed to halve the response being measured) on Prothrombin was 0.741 µM (active).

`Nc1ccc(Br)c[n+]1Cc1cccc2cccnc12`: the 50% cytotoxic concentration (CC50) (usually the concentration giving 50% cytotoxicity) in assay [4] is > 50 µM (active). Also, the IC50 in “cells” is 46.7 µM (active).

Turning to `CC(=O)C(=Nc1ccc(Cl)cc1Cl)NNc1cccc(Cl)c1`, the EC50 in assay [5] is 3.14 µM (active); with Streptococcus, > 150 µM (not active); in the assay with HEK293, > 35.4 µM (not active).

Turning to `C/C=C/c1ccccc1[C@H]1[C@@H](C#N)N(C(=O)NC2CCCC2)[C@H]1CO`, the AC50 in [6] is 0.952 µM (active); in assay [7], 1.58 µM (active); in assay [8], 1.85 µM (active); in [9], 33.8 µM (active).

In the case of `CCN(CC)c1ccc(S(=O)(=O)N2CCOCC2)cc1NC(=O)CN1CCN(Cc2ccccc2)CC1`, the IC50 in assay [10] is 84.5 µM (active). Besides, the concentration at half-maximal activity (AC50) in assay [11] was 18.1 µM (active). For the same compound, the CC50 in assay [12] was 100 µM (active).

Take `CCOC(=O)c1ccc(NC(=O)NC2CCN(CC(=O)NCc3ccc4c(c3)OCO4)CC2)cc1`: at Prothrombin, the half-maximal inhibitory concentration (IC50) is recorded as > 50 µM (not active).

Consider `Cc1ccc(C)c(NC(=O)C2Cc3ccccc3CN2C(=O)OCc2ccccc2)c1` (stereo unspecified), for which, on Prothrombin, the IC50 is reported as > 50 µM (not active).

In the case of `O=C1c2ccccc2C(=O)N1CCCCN(C(=O)c1ccco1)c1ccc(Cl)cc1`, in the assay “cells”, the IC50 is 11.8 µM (active).
